This is an account of results in paper PMC11597478, “Kinin B1- and B2-Receptor Subtypes Contract Isolated Bovine Ciliary Muscle: Their Role in Ocular Lens Function and Intraocular Pressure Reduction” (Pharmaceuticals, 2024).

Assay [1] has as its system bovine ciliary muscle (BCM) strips. The experiment in a line: tissue or blood. As to conditions: for share of the maximal contraction accounted for by the first high affinity/potency phase: biphasic C-R curve, BCM strips; for Max. Tension Generated During Contraction: freshly isolated BCM strips, Krebs 37 °C, 1 g load, 7–11 concentrations (0.1 nM–10 µM), mean ± SEM, 3–8 experiments. The assay is classed as cell-based. The method, then: The methods utilized in the current studies were adapted from Lograno and Romano [13] and Ohia et al., with some minor modifications. Fresh bovine eyeballs were obtained from a local abattoir (Fisher Ham and Meat Company, Houston, TX, USA) and transported to the laboratory in ice. Whole eyeballs were placed in warm oxygenated Krebs buffer solution for 30 min to ensure equilibration before dissection of the ciliary muscle. Briefly, the anterior segment was dissected out of whole eyeballs after an incision was made at the limbus. The anterior segment containing the cornea, anterior uvea, and lens was then inverted and the lens dislodged with a probe along with the attached vitreous humor. After removal of the vitreous humor and lens, the whole ciliary muscle (comprising both longitudinal and circular portions) was quickly isolated and dissected from the scleral spur and choroid. Muscle strips of 4–5 mm in length were cut and mounted in 25 mL organ baths containing oxygenated Krebs solution at 37 °C using a silk thread linked to an isometric strain gauge under a constant load of 1g tension. The tissues were then allowed to equilibrate for 30 min. Two ciliary muscle strips were prepared from each eyeball and four to eight strips were used for each series of experiments. The composition of the Krebs solution used (mM) was NaCl, 118; KCl, 4.8; CaCl2, 2.5; KH2PO4, 1.2; NaHCO3, 25; MgSO4, 2.0; dextrose, 10 and flurbiprofen, 0.003 (pH 7.4), all purchased from Sigma-Aldrich, St. Louis, MO (USA). […] A robust response was characterized as a single contraction that consistently yielded a tension in the muscle induced by carbachol of 0.15–0.3 gm. […] Tissue strips were then thoroughly rinsed with fresh buffer solution via a series of buffer additions and drainage activities to remove any residual muscarinic agonist, and the preload was readjusted prior to starting the actual study with kininergic ligands. Concentration–response studies employed 7–11 compound concentrations (0.1 nM to 10 µM) and data from multiple experiments were collected.
The contractile responses obtained were expressed as gram tension developed and as percentages of the maximum response of each of the compounds. GraphPad Prism 4.0 Software (San Diego, CA, USA) was then used to construct the concentration–response curves for the kinins and to derive the half-maximal stimulation potencies (EC50) of each phase of the bi-phasic curves and the values tabulated as previously described.

In assay [2] the target is kinin B2 receptor (Homo sapiens) (UniProt P30411). The following applies: cited from earlier work.
For assay [3], the target named is kinin B2 receptor (Oryctolagus cuniculus) (UniProt Q28642). As to conditions: cited from earlier work.
Assay [4] has as its target kinin B1 receptor (Oryctolagus cuniculus) (UniProt P48748). As to conditions: cited from earlier work.
Assay [5] deals with kinin B1 receptor (Homo sapiens) (UniProt P46663). The following applies: cited from earlier work.
Assay [6] concerns the target kinin B1 receptor (Mus musculus) (UniProt Q61125). As to conditions: cited from earlier work.
In assay [7] the target is kinin B2 receptor (Mus musculus) (UniProt P32299). As to conditions: cited from earlier work.
Assay [8] has as its system bovine aortic endothelial cells. As to conditions: ref [21]; cited from earlier work. The source says:
Figure 2 Chemical structures of bradykinin and its key analogs and those of the selective B1- and B2-receptor antagonists. The amino acid composition and linkage to form bradykinin and its analogs (linear peptides) are depicted in the upper panel.

For assay [9], the system named is rat ileum. The following applies: B1-receptor in rat ileum, contraction; ref [25]; read-out: Functional potency, RI, HP Site; cited from earlier work. The source says:
Table 2 Ability of BK and Des-Arg^9-BK to Contract Various Tissues of Different Species or to Mobilize Intracellular Ca^2+ in human Ocular Cells. | column: RI || In the current studies, both BK and Des-Arg^9-BK contracted the BCM in a biphasic fashion, indicating the involvement of both B1 and B2 receptors in the smooth muscle contraction process. Other agonist peptides related to BK also elicited similar profiles of contractility, thereby substantiating the effects of BK and Des-Arg^9-BK in this specific tissue. Furthermore, the role of both kinin receptor subtypes being responsible for contracting BCM in vitro was confirmed by sequentially recording the functional responses of the tissue in the presence of B1- and B2-receptor antagonists in numerous ...

Assay [10] deals with human umbilical vein. As to conditions: B2-receptor-mediated contraction; ref [1],[2],[3],[18],[20],[23]; read-out: Functional potency, HUV, HP Site; cited from earlier work. The source says:
Table 2 Ability of BK and Des-Arg^9-BK to Contract Various Tissues of Different Species or to Mobilize Intracellular Ca^2+ in human Ocular Cells. | column: HUV

Assay [11] deals with rat uterus strips. As to conditions: B2-receptor-mediated contraction; ref [1],[2],[3],[18],[20],[23]; read-out: Functional potency, RUT, HP Site; cited from earlier work. The source says:
Table 2 Ability of BK and Des-Arg^9-BK to Contract Various Tissues of Different Species or to Mobilize Intracellular Ca^2+ in human Ocular Cells. | column: RUT

Assay [12] has as its system human ciliary muscle (hCM) cells. The following applies: [Ca2+]i mobilization, first value of cell; single B2-receptor subtype; ref [2],[8]; read-out: Functional potency, hCM Cells, HP Site; cited from earlier work. The source says: (§1) Table 2 Ability of BK and Des-Arg^9-BK to Contract Various Tissues of Different Species or to Mobilize Intracellular Ca^2+ in human Ocular Cells. | column: hCM/hTM Cells

In assay [13] the test system is human trabecular meshwork (hTM) cells. As to conditions: [Ca2+]i mobilization, second value of cell; single B2-receptor subtype; ref [2],[8]; read-out: Functional potency, hTM Cells, HP Site; cited from earlier work.
From the text: as §1

The target of assay [14] is cloned B2 receptor. The following applies: ref [1]; read-out: Ki, cloned B2 receptor (rabbit); cited from earlier work.
In assay [15] the target is cloned B2 receptor. As to conditions: ref [1]; cited from earlier work.
In assay [16] the target is cloned B2 receptor. The following applies: ref [1]; read-out: Ki, cloned B2 receptor (mouse); cited from earlier work.
Assay [17] concerns the target kinin B1 receptor (Mus musculus) (UniProt Q61125). The following applies: cited from earlier work. The source holds these as a separate data set.

Like-named read-outs stand apart in the source and are kept apart here. Square brackets hold non-standard residues; d marks the D form. Peptide text beside a SMILES is read from it. * marks the point of attachment. X1 = COc1ccc(C[C@@H](CN[C@@H](CCCNC(=N)N)C(=O)O)N*)cc1; Hyp = O=C(O)[C@@H]1C[C@@H](O)CN1; 2Thi = N[C@@H](Cc1cccs1)C(=O)O Bounds are passed on as bounds.

Chain of UniProt Q61125 (Q61125 whole entry): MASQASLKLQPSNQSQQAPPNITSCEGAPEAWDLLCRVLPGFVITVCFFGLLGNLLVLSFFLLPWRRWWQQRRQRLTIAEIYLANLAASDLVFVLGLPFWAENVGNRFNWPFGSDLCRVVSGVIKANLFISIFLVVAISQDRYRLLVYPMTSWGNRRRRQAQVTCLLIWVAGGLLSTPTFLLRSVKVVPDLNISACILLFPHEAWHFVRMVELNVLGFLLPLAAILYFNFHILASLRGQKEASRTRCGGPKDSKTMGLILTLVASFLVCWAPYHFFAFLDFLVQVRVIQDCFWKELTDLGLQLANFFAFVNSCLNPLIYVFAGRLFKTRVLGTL
Chain of UniProt P46663 (P46663 whole entry): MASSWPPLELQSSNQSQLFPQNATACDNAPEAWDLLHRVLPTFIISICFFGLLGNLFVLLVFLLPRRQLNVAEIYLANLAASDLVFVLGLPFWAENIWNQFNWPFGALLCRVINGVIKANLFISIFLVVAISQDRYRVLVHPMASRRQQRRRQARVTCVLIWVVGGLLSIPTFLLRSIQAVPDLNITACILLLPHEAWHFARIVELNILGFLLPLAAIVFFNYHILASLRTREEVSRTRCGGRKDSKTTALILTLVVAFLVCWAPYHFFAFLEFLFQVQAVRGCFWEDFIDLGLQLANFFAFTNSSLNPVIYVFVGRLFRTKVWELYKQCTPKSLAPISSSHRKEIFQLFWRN
Chain of UniProt P48748 (P48748 whole entry): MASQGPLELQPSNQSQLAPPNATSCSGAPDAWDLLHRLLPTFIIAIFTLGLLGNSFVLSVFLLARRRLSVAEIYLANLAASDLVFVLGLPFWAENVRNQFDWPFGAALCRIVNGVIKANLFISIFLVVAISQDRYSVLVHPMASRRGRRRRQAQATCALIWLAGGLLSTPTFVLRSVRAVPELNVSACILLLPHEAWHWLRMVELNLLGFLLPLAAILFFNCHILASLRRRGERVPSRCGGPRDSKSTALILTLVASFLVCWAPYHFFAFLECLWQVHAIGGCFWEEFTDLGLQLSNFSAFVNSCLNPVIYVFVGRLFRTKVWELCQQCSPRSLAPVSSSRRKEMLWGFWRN
Chain of UniProt P30411 (P30411 whole entry): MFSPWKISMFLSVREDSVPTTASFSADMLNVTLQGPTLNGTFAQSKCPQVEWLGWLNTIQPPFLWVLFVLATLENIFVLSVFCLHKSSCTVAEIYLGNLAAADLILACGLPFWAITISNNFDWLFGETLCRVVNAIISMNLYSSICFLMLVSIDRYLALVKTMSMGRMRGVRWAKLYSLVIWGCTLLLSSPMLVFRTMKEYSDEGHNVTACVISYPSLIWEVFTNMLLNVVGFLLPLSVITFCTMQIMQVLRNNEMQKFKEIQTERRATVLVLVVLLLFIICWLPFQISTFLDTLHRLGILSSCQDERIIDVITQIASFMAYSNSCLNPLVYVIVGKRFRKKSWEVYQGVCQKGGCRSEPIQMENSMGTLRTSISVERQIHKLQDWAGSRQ
Chain of UniProt Q28642 (Q28642 whole entry): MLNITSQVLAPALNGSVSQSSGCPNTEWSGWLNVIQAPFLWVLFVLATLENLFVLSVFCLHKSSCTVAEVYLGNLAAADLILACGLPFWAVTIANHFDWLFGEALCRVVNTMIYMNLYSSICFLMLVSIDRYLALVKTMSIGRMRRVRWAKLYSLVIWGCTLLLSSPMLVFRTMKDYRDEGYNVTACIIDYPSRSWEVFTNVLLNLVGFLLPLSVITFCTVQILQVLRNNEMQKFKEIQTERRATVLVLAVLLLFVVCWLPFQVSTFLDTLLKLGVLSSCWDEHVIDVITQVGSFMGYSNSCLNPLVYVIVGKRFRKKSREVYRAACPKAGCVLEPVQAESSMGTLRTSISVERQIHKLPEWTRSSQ
Chain of UniProt P32299 (P32299 whole entry): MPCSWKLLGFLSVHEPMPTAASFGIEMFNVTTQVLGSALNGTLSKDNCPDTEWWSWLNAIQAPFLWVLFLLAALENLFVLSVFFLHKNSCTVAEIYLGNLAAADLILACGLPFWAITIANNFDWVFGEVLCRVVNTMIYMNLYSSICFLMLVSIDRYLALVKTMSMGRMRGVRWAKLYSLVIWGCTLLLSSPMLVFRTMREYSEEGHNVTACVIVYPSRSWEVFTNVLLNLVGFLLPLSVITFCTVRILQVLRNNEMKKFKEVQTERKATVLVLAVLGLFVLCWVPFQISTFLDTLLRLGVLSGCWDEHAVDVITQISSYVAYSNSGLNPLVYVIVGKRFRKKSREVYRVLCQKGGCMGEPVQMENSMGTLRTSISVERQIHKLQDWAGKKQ

Turning to `CSCC[C@H](N)C(=O)N[C@@H](CCCCN)C(=O)N[C@@H](CCCNC(=N)N)C(=O)N1CCC[C@H]1C(=O)N1CCC[C@H]1C(=O)NCC(=O)N[C@@H](Cc1ccccc1)C(=O)N[C@@H](CO)C(=O)N1CCC[C@H]1C(=O)N[C@@H](Cc1ccccc1)C(=O)N[C@@H](CCCNC(=N)N)C(=O)O` [Met-Lys-BK, Met-Lys-Bradykinin], in [1], the “share of the maximal contraction accounted for by the first high affinity/potency phase” value (shortened to “share … by the first high affinity/potency phase”) is recorded as 40–60% and the “Max. Tension Generated During Contraction” value was determined as 0.06 ± 0.01 gm tension.

Broadly, the Ki is the dissociation constant of the complex between target and ligand, obtained from inhibition or displacement. For the molecule Bradykinin (from UniProt P01042), the Ki in assay [2] was 0.54 nM; in assay [3], 4.5 nM; in assay [4], 5000 nM; in assay [5], 10000 nM; in assay [6] it was 200 nM; in assay [7] it was 0.48 nM.

Consider `C[N+](C)(C)CCOC(N)=O` [carbachol], for which the “contraction of BCM by positive control agent” value in assay [1] (monophasic concentration-dependent profile, n = 6–8) is recorded as “always contracted the tissue”.

For `N=C(N)NCCC[C@H](NC(=O)[C@H](Cc1ccccc1)NC(=O)[C@@H]1CCCN1C(=O)[C@H](CO)NC(=O)[C@H](Cc1ccccc1)NC(=O)CNC(=O)[C@@H]1CCCN1C(=O)[C@@H]1CCCN1C(=O)[C@H](CCCNC(=N)N)NC(=O)[C@@H](N)CCCCN)C(=O)O` [Lys-BK, Lys-Bradykinin], in [1], the “share … by the first high affinity/potency phase” value was 40–60% and the “Max. Tension Generated During Contraction” value is 0.06 ± 0.01 gm tension.

Turning to `CCCC[P+](CCCC)(CCCC)Cc1ccc(NC(=O)[C@H](Cc2ccc3ccccc3c2)NC(=NC2CCCCC2)NC2CCCCC2)cc1.[Cl-]` [WIN-64338], the “effect on cGMP production induced by Des-Arg^9-BK” value in [8] was “block the cGMP-producing effects of Des-Arg^9-BK”.

As to `N=C(N)NCCC[C@H](N)C(=O)N1CCC[C@H]1C(=O)N1CCC[C@H]1C(=O)NCC(=O)N[C@@H](Cc1ccccc1)C(=O)N[C@@H](CO)C(=O)N1CCC[C@H]1C(=O)N[C@@H](Cc1ccccc1)C(=O)O` [Des-Arg^9-BK, Des-Arg^9-Bradykinin], the EC50 is 30 ± 1.9 nM in assay [1]; 18.6 nM in [9]; over 1000 nM in assay [10]; over 1000 nM in assay [11]; 4200 nM in [12]; 3600 nM in assay [13]. Also, the “share … by the first high affinity/potency phase” value in [1] is given as 40–60%. The “Max. Tension Generated During Contraction” value in assay [1] worked out at 0.06 ± 0.01 gm tension. Besides, the values for the Ki in [14], in assay [15] and in assay [16] were over 1000 nM, 8100 nM and 6400 nM, respectively.

`COc1ccc(C[C@@H](CN[C@@H](CCCNC(=N)N)C(=O)O)NC(=O)[C@@H]2CCCN2C(=O)[C@H](CO)NC(=O)[C@H](Cc2cccs2)NC(=O)CNC(=O)[C@@H]2C[C@@H](O)CN2C(=O)[C@@H]2CCCN2C(=O)[C@@H](N)CCCNC(=N)N)cc1` [RMP-7] (H-RP[Hyp]G[2Thi]SP-X1): in assay [1], the EC50 is 3.5 ± 0.5 nM, the “share … by the first high affinity/potency phase” value is 40–60% and the “Max. Tension Generated During Contraction” value was determined as 0.07 ± 0.01 gm tension.

Turning to “Des-Arg9-bradykinin (from UniProt P01042)”, the Ki in assay [17] is 0.7 nM.

With `N=C(N)NCCC[C@H](NC(=O)[C@H](Cc1ccccc1)NC(=O)[C@@H]1CCCN1C(=O)[C@H](CO)NC(=O)[C@H](Cc1ccccc1)NC(=O)CNC(=O)[C@@H]1C[C@@H](O)CN1C(=O)[C@@H]1CCCN1C(=O)[C@@H](N)CCCNC(=N)N)C(=O)O` [Hyp^3-BK, Hyp^3-Bradykinin], in assay [1], the “share … by the first high affinity/potency phase” value is on record as 40–60% and the “Max. Tension Generated During Contraction” value amounted to 0.04 ± 0.01 gm tension.

Turning to `CN1[C@@H]2CC[C@H]1C[C@@H](OC(=O)C(CO)c1ccccc1)C2` (stereo partly shown) [atropine], in [1] (Bos taurus, carbachol C-R curve in the absence and presence of atropine, n = 6, read-out: potency (EC50) from monophasic carbachol concentration-response curve), the EC50 was 1000 ± 70 nM. The “effect of muscarinic antagonist on carbachol-induced BCM contraction” value in assay [1] (increasing concentrations of atropine, n = 6–8) is on record as “concentration-dependently blocked”.
